Experiment [1] deals with PTPRZ1 M1902F, M1902H. Description: Inhibitor sensitivity of point mutants PTPRZ1 M1902F and M1902H. It counts as biochemical, human. To be noted: 10 µM, vs wild-type PTPRZ1. An excerpt:
(§1) Figure 5 Structural basis for PTPRZ inhibition of NAZ2329. (A) An enlarged view of the X-ray structure of human PTPRZ1-D1 complexed with NAZ2329 (PDB ID: 5H08) (left), X-ray structure of the apo (open) form of PTPRZ1-D1 (PDB ID: 5AWX, ref. [6], middle) and a computer-modeled structure of the closed form of PTPRZ1-D1 complexed with a competitive inhibitor, SCB4380 (ref. [6], right), are shown. PTPRZ1-D1 is shown as a gray surface representation, in which Cys1933 at the active site and Val-1911 at the bottom of the allosteric pocket are indicated in red and yellow, respectively. Inhibitors are colored according to the atomic species in a stick figure representation as follows: oxygen (red), nitrogen (blue), sulfur (yellow), and carbon (green). The bottom figures show the conformation of the WPD loop (orange) as cartoon representations, in which Asp1901 and Cys1933 are indicated by orange and red spheres, respectively. Side chains of Arg1939 at the active site, Met1902 in the WPD loop, and Val-1911 at the bottom of the allosteric binding area are also shown in the stick representation. (B) LigPlot representation of the NAZ2329 interaction with PTPRZ1-D1. The predicted hydrogen bonds (broken black lines) and residues (red spoked arcs) involved in the hydrophobic interaction are shown. […]

Experiment [2] relates to C6 cells. Description: Boyden chamber migration assay, C6 cells. It is filed as cell-based, rat. To be noted: 3 h. Here is the method: Figure 7 Cellular effects of NAZ2329 on the malignant phenotypes of C6 cells. (A) Phosphorylation of paxillin at Tyr-118. C6 cells were incubated with NAZ2329 for the indicated periods. Immunoprecipitated paxillin was analyzed by Western blotting using anti-pY118-paxillin and anti-paxillin. Blots are representative of five independent cultures. […] (B) Cell proliferation assay. C6 cells were incubated for 48 h with NAZ2329 in normal medium containing 2% FBS. […] (C) Boyden chamber assay. Cells were allowed to migrate for 3 h. DAPI-stained nuclei are shown before (total) and after (migrated) the removal of cells remaining in the top chamber. Scale bars, 100 µm. […] (D,E) Sphere formation (D) and SOX2 expression (E). C6 cells were cultured in CSC medium for 7 days with indicated concentrations of NAZ2329. Images are representative of five independent cultures. Scale bars, 100 µm. […] (F) Self-renewal of C6 spheres. C6 spheres were initially developed in CSC medium for 7 days, followed by an incubation with NAZ2329 in CSC medium for 5 days. Images are representative of five independent cultures. Scale bars, 100 µm. […] Full-length blots and gels are presented in Supplementary Fig. S7.
This assay was performed as described previously. […] Cells were allowed to migrate for 3 h, and the number of cells that migrated to the lower surface was counted under a conventional fluorescence microscope.

Experiment [3] relates to C6 cells. Description: Cell proliferation assay, C6 cells. It counts as cell-based, rat. To be noted: 48 h, 2% FBS. On the procedure: Figure 7 Cellular effects of NAZ2329 on the malignant phenotypes of C6 cells. (A) Phosphorylation of paxillin at Tyr-118. C6 cells were incubated with NAZ2329 for the indicated periods. Immunoprecipitated paxillin was analyzed by Western blotting using anti-pY118-paxillin and anti-paxillin. Blots are representative of five independent cultures. […] (B) Cell proliferation assay. C6 cells were incubated for 48 h with NAZ2329 in normal medium containing 2% FBS. […] (C) Boyden chamber assay. Cells were allowed to migrate for 3 h. DAPI-stained nuclei are shown before (total) and after (migrated) the removal of cells remaining in the top chamber. Scale bars, 100 µm. […] (D,E) Sphere formation (D) and SOX2 expression (E). C6 cells were cultured in CSC medium for 7 days with indicated concentrations of NAZ2329. Images are representative of five independent cultures. Scale bars, 100 µm. […] (F) Self-renewal of C6 spheres. C6 spheres were initially developed in CSC medium for 7 days, followed by an incubation with NAZ2329 in CSC medium for 5 days. Images are representative of five independent cultures. Scale bars, 100 µm. […]
Cells (3 × 10^4 cells) were inoculated into a 24-well plastic tissue culture plate with 500 µl of DMEM supplemented with 2% FBS and the indicated compounds for 48 h. Cells were harvested by trypsinization and then manually counted with a hemacytometer.

The test system of experiment [4] is PTPN1 F191V. Description: Inhibitor sensitivity of point mutant PTPN1 F191V. It is filed as biochemical, human. As to conditions: at 10 µM.
Source text: as §1

Experimental findings from publication PMC5514153, “Targeting PTPRZ inhibits stem cell-like properties and tumorigenicity in glioblastoma cells” (Scientific Reports, 2017) are described below.

For `CCOc1ccc(C(F)(F)F)cc1CSc1ccsc1C(=O)NS(=O)(=O)c1ccccc1` [NAZ2329], the “effect of M1902F / M1902H substitution on sensitivity to inhibitor” value in experiment [1] was “did not affect the sensitivity to the inhibitor”. Also, the cell migration entry in experiment [2] is reported as “inhibited”. Also, in experiment [3], the cell proliferation entry is given as “inhibited cell proliferation”. The “change in sensitivity of F191V mutant vs wild-type PTPN1 (more sensitive)” value in experiment [4] is reported as ~ 2 fold.
